From US20070196442A1, “Method for improving the oral administration of alpha-lipoic acid” (priority 2006, published 2007)

Columns and labels:
[1] = double-blind, randomized comparative taste-test of oral alpha-lipoic acid solutions (throat irritation, overall liking); assay type: in vivo; conditions: of seventeen subjects
[2] = pH of aqueous solution; assay type: physicochemical; conditions: noted by the inventors
[3] = background / U.S. Pat. No. 3,562,273; cited from earlier work

SMILES	number of subjects ranking the sample as the most irritating of the three samples [1]	pH of the salt [2]	pH in a 0.1M aqueous solution [3]
O=C(O)CCCC[C@@H]1CCSS1 [ALA, 5-[(3R)-dithiolan-3-yl]pentanoic acid]	fourteen		
NC(CO)(CO)CO.O=C(O)CCCCC1CCSS1 (stereo not shown) [TR-ALA, tris(hydroxymethyl) amino methane thioctate]		6.5 to 7.5	6.5
NC(CO)(CO)CO [trometamol, 2-amino-2-(hydroxymethyl)propane-1,3-diol]			10.4
